Experimental data: article PMC11864037 (RSC Advances, 2025)
Where two headings read alike, the source gives them in different places.

Assays:
SARS-CoV-2 M^pro = SARS-CoV-2 M^pro (Severe acute respiratory syndrome coronavirus 2, UniProt P0DTD1); assay: biochemical; conditions: for inhibition against M^pro: concentration not given
[1] = MTT cytotoxic assay in Vero-E6 cells; type: cell-based; conditions: African green monkey
SARS-CoV-2 = conditions: cited from earlier work
M^pro = conditions: repurposed drug; cited from earlier work

Compound | IC50 (SARS-CoV-2 M^pro) [µM] | also measured
CS(=O)(=O)n1cc2c(n1)CN(CC(=O)SC1=NC(c3ccc(C(F)(F)F)cc3)C(C(=O)N[C@@H](Cc3c[nH]cn3)C(=O)O)=C(C(F)(F)F)N1)C2 (stereo partly drawn) [12h, (2-((2-(2-(Methylsulfonyl)-2,6-dihydropyrrolo[3,4-c]pyrazol-5(4H)-yl)acetyl)thio)-6-(trifluoromethyl)-4-(4-(trifluoromethyl)phenyl)-1,4-dihydropyrimidine-5-carbonyl)histidine] | 16.3 | –
O=C(O)CC[C@H](NC(=O)C1=C(C(F)(F)F)NC(=S)NC1c1ccc(C(F)(F)F)cc1)C(=O)O (stereo partly drawn) [8a] | 23.2 | –
O=C(Nc1ccc(S(=O)(=O)O)cc1)C1=C(C(F)(F)F)NC(=S)NC1c1ccc(C(F)(F)F)cc1 (stereo not drawn) [8c] | 28.2 | –
CS(=O)(=O)n1cc2c(n1)CN(CC(=O)SC1=NC(c3ccc([N+](=O)[O-])cc3)C(C(=O)N[C@@H](CCC(=O)O)C(=O)O)=C(C(F)(F)F)N1)C2 (stereo partly drawn) [12j, (2-((2-(2-(Methylsulfonyl)-2,6-dihydropyrrolo[3,4-c]pyrazol-5(4H)-yl)acetyl)thio)-4-(4-nitrophenyl)-6-(trifluoromethyl)-1,4-dihydropyrimidine-5-carbonyl)-L-glutamic acid] | 0.063 | inhibition against M^pro (SARS-CoV-2 M^pro): over 50%; CC50 at 48 h [1]: 211 µM
O=C(N[C@@H](Cc1c[nH]cn1)C(=O)O)C1=C(C(F)(F)F)NC(=S)NC1c1ccc(C(F)(F)F)cc1 (stereo partly drawn) [8d] | 30.7 | –
O=C(CN1CCn2c(nnc2C(F)(F)F)C1)SC1=NC(c2ccc(C(F)(F)F)cc2)C(C(=O)N[C@@H](Cc2c[nH]cn2)C(=O)O)=C(C(F)(F)F)N1 (stereo partly drawn) [12d, (6-(Trifluoromethyl)-2-((2-(3-(trifluoromethyl)-5,6-dihydro-[1,2,4]triazolo[4,3-a]pyrazin-7(8H)-yl)acetyl)thio)-4-(4-(trifluoromethyl)phenyl)-1,4-dihydropyrimidine-5-carbonyl)histidine] | 14.4 | –
CS(=O)(=O)n1cc2c(n1)CN(CC(=O)SC1=NC(c3ccc(C(F)(F)F)cc3)C(C(=O)N[C@@H](Cc3ccc(O)cc3)C(=O)O)=C(C(F)(F)F)N1)C2 (stereo partly drawn) [12i, (2-((2-(2-(Methylsulfonyl)-2,6-dihydropyrrolo[3,4-c]pyrazol-5(4H)-yl)acetyl)thio)-6-(trifluoromethyl)-4-(4-(trifluoromethyl)phenyl)-1,4-dihydropyrimidine-5-carbonyl)-L-tyrosine] | – | CC50 at 48 h [1]: 243 µM
NC1CCCN(CC(=O)SC2=NC(c3ccc(C(F)(F)F)cc3)C(C(=O)N[C@@H](Cc3ccc(O)cc3)C(=O)O)=C(C(F)(F)F)N2)C1 (stereo partly drawn) [12g, (2-((2-(3-Aminopiperidin-1-yl)acetyl)thio)-6-(trifluoromethyl)-4-(4-(trifluoromethyl)-phenyl)-1,4-dihydropyrimidine-5-carbonyl)-L-tyrosine] | 0.21 ± 0.01 | –
O=C(CN1CCn2c(nnc2C(F)(F)F)C1)SC1=NC(c2ccc(C(F)(F)F)cc2)C(C(=O)N[C@@H](Cc2ccc(O)cc2)C(=O)O)=C(C(F)(F)F)N1 (stereo partly drawn) [12e, (6-(Trifluoromethyl)-2-((2-(3-(trifluoromethyl)-5,6-dihydro-[1,2,4]triazolo[4,3-a]-pyrazin-7(8H)-yl)acetyl)thio)-4-(4-(trifluoromethyl)phenyl)-1,4-dihydropyrimidine-5-carbonyl)-L-tyrosine] | 0.73 ± 0.04 | –
O=C(N[C@@H](Cc1ccc(O)cc1)C(=O)O)C1=C(C(F)(F)F)NC(=S)NC1c1ccc(C(F)(F)F)cc1 (stereo partly drawn) [8e] | 25.3 | –
COC(=O)c1ccc(C2N=C(SC(=O)CN3CCn4c(nnc4C(F)(F)F)C3)NC(C(F)(F)F)=C2C(=O)N[C@@H](Cc2c[nH]cn2)C(=O)O)cc1 (stereo partly drawn) [12l, (4-(4-(Methoxycarbonyl)phenyl)-6-(trifluoromethyl)-2-((2-(3-(trifluoromethyl)-5,6-dihydro-[1,2,4]triazolo[4,3-a]pyrazin-7(8H)-yl)acetyl)thio)-1,4-dihydropyrimidine-5-carbonyl)-L-histidine] | 0.054 | inhibition against M^pro (SARS-CoV-2 M^pro): over 50%; CC50 at 48 h [1]: 198 µM
O=C(O)CC[C@H](NC(=O)C1=C(C(F)(F)F)NC(=S)NC1c1ccc([N+](=O)[O-])cc1)C(=O)O (stereo partly drawn) [8f] | 36.8 | –
O=C(O)C[C@H](NC(=O)C1=C(C(F)(F)F)NC(=S)NC1c1ccc(C(F)(F)F)cc1)C(=O)O (stereo partly drawn) [8b] | 44.7 ± 1.36 | –
CS(=O)(=O)n1cc2c(n1)CN(CC(=O)SC1=NC(c3ccc([N+](=O)[O-])cc3)C(C(=O)Nc3ccc(S(=O)(=O)O)cc3)=C(C(F)(F)F)N1)C2 (stereo not drawn) [12k, 4-(2-((2-(2-(Methylsulfonyl)-2,6-dihydropyrrolo[3,4-c]pyrazol-5(4H)-yl)acetyl)thio)-4-(4-nitrophenyl)-6-(trifluoromethyl)-1,4-dihydropyrimidine-5-carboxamido)benzene-sulfonic acid] | 0.146 | CC50 at 48 h [1]: 239 µM
CC(C)(C)[C@H](NC(=O)C(F)(F)F)C(=O)N1C[C@H]2[C@@H]([C@H]1C(=O)N[C@H](C#N)C[C@@H]1CCNC1=O)C2(C)C [nirmatrelvir] | – | EC50 (SARS-CoV-2; read-out: antiviral activity EC50): 0.074 µM
O=C(O)CC[C@H](NC(=O)C1=C(C(F)(F)F)NC(SC(=O)CN2CCn3c(nnc3C(F)(F)F)C2)=NC1c1ccc(C(F)(F)F)cc1)C(=O)O (stereo partly drawn) [12a, (6-(Trifluoromethyl)-2-((2-(3-(trifluoromethyl)-5,6-dihydro-[1,2,4]triazolo[4,3-a]-pyrazin-7(8H)-yl)acetyl)thio)-4-(4 (trifluoromethyl)phenyl)-1,4-dihydropyrimidine-5-carbonyl)-L-glutamic acid] | 0.15 | –
Cn1cnc(Cn2c(=O)[nH]/c(=N\c3cc4cn(C)nc4cc3Cl)n(Cc3cc(F)c(F)cc3F)c2=O)n1 [ensitrelvir] | – | EC50 (SARS-CoV-2): 0.37 µM
CC(C)(C)NC(=O)N[C@H](C(=O)N1C[C@H]2[C@@H]([C@H]1C(=O)NC(CC1CCC1)C(=O)C(N)=O)C2(C)C)C(C)(C)C (stereo partly drawn) [boceprevir] | – | IC50 (M^pro): 4.13 µM
COC(=O)c1ccc(C2NC(=S)NC(C(F)(F)F)=C2C(=O)N[C@@H](Cc2c[nH]cn2)C(=O)O)cc1 (stereo partly drawn) [8h] | 34.9 | –
